Tests used:
Experiment in all cases: Standardized radiometric kinase assays, percentage of activity at 0.5 μM;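 note: Read-out is ³³P-labelled substrate protein phosphorylated by each kinase, captured on filters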
[1] = target: each individual kinase of the panel (Homo sapiens, UniProt O14733); conditions: for % Activity: MKK7β(h)
[2] = target: each individual kinase of the panel (Homo sapiens, UniProt O14965); conditions: for % Activity: Aurora-A(h)
[3] = target: each individual kinase of the panel (Homo sapiens, UniProt O43293); conditions: for % Activity: ZIPK(h)
[4] = target: each individual kinase of the panel (Homo sapiens, UniProt P00533, L858R); conditions: for % Activity: EGFR(L858R)(h)
[5] = target: each individual kinase of the panel (Homo sapiens, UniProt P00533, T790M); conditions: for % Activity: EGFR(T790M)(h)
[6] = target: each individual kinase of the panel (Homo sapiens, UniProt P07947); conditions: for % Activity: Yes(h)
[7] = target: each individual kinase of the panel (Homo sapiens, UniProt P08631); conditions: for % Activity: Hck(h)
[8] = target: each individual kinase of the panel (Homo sapiens, UniProt P08922)
[9] = target: each individual kinase of the panel (Homo sapiens, UniProt P10721); conditions: for % Activity: cKit(h)
[10] = target: each individual kinase of the panel (Homo sapiens, UniProt P16234); conditions: for % Activity: PDGFRα(h)
[11] = target: each individual kinase of the panel (Homo sapiens, UniProt P17612); conditions: for % Activity: PKA(h)
[12] = target: each individual kinase of the panel (Homo sapiens, UniProt P21802); conditions: for % Activity: FGFR2(h)
[13] = target: each individual kinase of the panel (Homo sapiens, UniProt P35968); conditions: for % Activity: KDR(h)
[14] = target: each individual kinase of the panel (Homo sapiens, UniProt P43403); conditions: for % Activity: ZAP-70(h)
[15] = target: each individual kinase of the panel (Homo sapiens, UniProt P49841); conditions: for % Activity: GSK3β(h)
[16] = target: each individual kinase of the panel (Homo sapiens, UniProt P50613); conditions: for % Activity: CDK7/cyclinH/MAT1(h)
[17] = target: each individual kinase of the panel (Homo sapiens, UniProt Q02750); conditions: for % Activity: MEK1(h)
[18] = target: each individual kinase of the panel (Homo sapiens, UniProt Q04759); conditions: for % Activity: PKCθ(h)
[19] = target: each individual kinase of the panel (Homo sapiens, UniProt Q04912); conditions: for % Activity: Ron(h)
[20] = target: each individual kinase of the panel (Homo sapiens, UniProt Q15303); conditions: for % Activity: ErbB4(h)
[21] = target: each individual kinase of the panel (Homo sapiens, UniProt Q86V86); conditions: for % Activity: Pim-3(h)
[22] = target: each individual kinase of the panel (Homo sapiens, UniProt Q92630); conditions: for % Activity: DYRK2(h)
[23] = target: each individual kinase of the panel (Homo sapiens, UniProt Q9H2X6); conditions: for % Activity: HIPK2(h)
[24] = target: each individual kinase of the panel (Homo sapiens, UniProt Q9P1W9); conditions: for % Activity: Pim-2(h)
[25] = target: each individual kinase of the panel (Homo sapiens, UniProt Q9UEE5); conditions: for % Activity: DRAK1(h)
[26] = target: each individual kinase of the panel (Homo sapiens, UniProt P07333)
[27] = target: each individual kinase of the panel (Homo sapiens, UniProt P51955)
[28] = target: each individual kinase of the panel (Homo sapiens, UniProt Q9UM73)
[29] = target: each individual kinase of the panel (Homo sapiens, UniProt P28482)

Sequence of each individual kinase of the panel (Homo sapiens, UniProt P16234) (P16234 24-1089 limits assumed): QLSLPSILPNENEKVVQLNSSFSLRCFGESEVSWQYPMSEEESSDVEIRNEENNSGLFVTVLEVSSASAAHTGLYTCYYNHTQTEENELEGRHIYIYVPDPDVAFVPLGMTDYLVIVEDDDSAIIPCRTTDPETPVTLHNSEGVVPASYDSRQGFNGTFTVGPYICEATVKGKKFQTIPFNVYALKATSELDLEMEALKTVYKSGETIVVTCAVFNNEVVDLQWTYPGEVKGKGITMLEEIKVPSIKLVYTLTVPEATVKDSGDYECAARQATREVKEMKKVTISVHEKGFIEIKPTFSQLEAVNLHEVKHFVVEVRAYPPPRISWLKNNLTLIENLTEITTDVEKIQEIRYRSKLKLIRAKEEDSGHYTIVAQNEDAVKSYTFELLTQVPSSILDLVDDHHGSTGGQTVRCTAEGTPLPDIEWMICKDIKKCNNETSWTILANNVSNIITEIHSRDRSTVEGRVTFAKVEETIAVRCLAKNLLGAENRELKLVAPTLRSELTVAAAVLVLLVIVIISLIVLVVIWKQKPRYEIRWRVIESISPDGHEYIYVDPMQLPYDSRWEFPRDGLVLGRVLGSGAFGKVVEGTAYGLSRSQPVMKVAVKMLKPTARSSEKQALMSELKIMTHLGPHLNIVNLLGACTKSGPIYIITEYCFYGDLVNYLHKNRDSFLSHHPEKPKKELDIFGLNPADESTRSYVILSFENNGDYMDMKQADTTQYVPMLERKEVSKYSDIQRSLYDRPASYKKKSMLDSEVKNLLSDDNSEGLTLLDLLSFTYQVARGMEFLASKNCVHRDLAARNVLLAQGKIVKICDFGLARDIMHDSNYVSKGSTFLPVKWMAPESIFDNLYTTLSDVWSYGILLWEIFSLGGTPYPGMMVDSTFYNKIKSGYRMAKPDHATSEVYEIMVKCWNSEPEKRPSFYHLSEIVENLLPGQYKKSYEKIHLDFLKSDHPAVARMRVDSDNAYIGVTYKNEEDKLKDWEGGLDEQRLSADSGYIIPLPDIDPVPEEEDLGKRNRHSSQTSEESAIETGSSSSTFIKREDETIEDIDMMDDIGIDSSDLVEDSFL
Sequence of each individual kinase of the panel (Homo sapiens, UniProt P35968) (P35968 20-1356 limits assumed): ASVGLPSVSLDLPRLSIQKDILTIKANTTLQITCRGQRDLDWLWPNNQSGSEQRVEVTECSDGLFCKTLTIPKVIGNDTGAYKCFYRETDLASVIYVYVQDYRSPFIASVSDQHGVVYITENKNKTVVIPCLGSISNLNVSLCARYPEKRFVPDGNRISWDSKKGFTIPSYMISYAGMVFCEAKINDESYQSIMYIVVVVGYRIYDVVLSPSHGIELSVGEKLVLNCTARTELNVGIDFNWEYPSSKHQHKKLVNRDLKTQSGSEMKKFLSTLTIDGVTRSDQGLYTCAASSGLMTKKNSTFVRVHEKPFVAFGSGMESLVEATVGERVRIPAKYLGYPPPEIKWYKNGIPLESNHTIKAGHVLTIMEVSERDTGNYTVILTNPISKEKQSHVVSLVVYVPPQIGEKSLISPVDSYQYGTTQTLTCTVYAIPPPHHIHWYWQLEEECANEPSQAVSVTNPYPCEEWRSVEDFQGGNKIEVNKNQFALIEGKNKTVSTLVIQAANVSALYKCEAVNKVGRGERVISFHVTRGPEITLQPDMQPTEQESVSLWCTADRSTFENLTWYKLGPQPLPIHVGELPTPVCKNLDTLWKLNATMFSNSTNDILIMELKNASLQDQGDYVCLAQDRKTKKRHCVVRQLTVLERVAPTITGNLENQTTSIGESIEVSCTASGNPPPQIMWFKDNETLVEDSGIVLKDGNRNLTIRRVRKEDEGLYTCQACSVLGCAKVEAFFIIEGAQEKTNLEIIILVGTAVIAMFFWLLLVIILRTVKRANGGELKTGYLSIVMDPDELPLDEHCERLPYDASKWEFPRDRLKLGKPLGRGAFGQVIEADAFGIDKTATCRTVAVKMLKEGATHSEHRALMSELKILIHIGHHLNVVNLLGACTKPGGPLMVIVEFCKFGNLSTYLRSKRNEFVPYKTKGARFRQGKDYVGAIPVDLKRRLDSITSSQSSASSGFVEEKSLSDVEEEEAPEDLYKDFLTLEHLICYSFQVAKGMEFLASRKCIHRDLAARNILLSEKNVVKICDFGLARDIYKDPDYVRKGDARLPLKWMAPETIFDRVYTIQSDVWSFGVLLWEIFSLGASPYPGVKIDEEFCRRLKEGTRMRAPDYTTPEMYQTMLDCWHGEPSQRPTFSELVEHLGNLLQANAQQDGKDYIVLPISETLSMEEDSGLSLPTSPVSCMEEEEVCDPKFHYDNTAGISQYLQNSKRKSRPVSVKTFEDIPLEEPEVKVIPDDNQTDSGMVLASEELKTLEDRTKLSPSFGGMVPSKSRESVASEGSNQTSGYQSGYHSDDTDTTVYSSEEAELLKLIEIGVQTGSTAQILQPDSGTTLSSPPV
Sequence of each individual kinase of the panel (Homo sapiens, UniProt Q9UM73) (Q9UM73 19-1620 limits assumed): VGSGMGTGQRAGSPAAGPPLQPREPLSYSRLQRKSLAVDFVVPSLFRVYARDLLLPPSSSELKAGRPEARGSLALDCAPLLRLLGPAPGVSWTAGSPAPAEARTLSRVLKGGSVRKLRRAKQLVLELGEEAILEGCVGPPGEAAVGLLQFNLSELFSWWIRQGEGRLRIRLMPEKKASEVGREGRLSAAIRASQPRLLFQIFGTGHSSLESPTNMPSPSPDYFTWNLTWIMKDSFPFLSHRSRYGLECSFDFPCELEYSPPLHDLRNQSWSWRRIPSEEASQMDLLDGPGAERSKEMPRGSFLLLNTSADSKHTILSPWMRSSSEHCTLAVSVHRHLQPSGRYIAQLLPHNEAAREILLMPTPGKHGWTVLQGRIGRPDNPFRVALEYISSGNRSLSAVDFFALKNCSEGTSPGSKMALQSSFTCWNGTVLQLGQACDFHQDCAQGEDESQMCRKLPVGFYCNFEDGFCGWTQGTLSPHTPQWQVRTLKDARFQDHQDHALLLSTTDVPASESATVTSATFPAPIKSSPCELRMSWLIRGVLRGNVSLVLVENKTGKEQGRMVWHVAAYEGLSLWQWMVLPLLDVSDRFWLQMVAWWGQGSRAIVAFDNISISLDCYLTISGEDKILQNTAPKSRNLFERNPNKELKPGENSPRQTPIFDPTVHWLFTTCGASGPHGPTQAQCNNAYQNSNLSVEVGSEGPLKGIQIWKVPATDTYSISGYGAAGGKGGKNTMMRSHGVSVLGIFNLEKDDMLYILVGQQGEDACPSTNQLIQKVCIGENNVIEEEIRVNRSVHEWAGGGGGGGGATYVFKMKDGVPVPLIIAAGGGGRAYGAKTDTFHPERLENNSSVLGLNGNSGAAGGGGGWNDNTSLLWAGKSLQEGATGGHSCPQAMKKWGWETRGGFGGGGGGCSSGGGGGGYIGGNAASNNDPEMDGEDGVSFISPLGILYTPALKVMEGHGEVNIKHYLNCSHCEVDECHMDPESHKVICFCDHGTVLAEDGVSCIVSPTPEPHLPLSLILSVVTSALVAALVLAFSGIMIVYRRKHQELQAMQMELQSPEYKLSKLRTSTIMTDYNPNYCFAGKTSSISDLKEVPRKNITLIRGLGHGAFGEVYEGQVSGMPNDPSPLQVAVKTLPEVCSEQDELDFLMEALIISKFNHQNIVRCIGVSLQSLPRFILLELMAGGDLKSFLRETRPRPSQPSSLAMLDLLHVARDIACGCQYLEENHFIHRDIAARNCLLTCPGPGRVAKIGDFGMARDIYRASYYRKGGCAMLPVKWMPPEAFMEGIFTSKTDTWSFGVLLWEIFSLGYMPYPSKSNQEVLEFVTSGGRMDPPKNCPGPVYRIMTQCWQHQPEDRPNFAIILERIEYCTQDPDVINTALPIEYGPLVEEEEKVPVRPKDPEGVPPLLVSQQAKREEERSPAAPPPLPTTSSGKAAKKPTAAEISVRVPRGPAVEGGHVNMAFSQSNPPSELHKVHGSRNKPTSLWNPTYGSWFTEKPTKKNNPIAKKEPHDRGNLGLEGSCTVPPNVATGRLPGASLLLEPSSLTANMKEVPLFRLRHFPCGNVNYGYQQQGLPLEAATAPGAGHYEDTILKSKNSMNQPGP
Sequence of each individual kinase of the panel (Homo sapiens, UniProt P10721) (P10721 26-976 limits assumed): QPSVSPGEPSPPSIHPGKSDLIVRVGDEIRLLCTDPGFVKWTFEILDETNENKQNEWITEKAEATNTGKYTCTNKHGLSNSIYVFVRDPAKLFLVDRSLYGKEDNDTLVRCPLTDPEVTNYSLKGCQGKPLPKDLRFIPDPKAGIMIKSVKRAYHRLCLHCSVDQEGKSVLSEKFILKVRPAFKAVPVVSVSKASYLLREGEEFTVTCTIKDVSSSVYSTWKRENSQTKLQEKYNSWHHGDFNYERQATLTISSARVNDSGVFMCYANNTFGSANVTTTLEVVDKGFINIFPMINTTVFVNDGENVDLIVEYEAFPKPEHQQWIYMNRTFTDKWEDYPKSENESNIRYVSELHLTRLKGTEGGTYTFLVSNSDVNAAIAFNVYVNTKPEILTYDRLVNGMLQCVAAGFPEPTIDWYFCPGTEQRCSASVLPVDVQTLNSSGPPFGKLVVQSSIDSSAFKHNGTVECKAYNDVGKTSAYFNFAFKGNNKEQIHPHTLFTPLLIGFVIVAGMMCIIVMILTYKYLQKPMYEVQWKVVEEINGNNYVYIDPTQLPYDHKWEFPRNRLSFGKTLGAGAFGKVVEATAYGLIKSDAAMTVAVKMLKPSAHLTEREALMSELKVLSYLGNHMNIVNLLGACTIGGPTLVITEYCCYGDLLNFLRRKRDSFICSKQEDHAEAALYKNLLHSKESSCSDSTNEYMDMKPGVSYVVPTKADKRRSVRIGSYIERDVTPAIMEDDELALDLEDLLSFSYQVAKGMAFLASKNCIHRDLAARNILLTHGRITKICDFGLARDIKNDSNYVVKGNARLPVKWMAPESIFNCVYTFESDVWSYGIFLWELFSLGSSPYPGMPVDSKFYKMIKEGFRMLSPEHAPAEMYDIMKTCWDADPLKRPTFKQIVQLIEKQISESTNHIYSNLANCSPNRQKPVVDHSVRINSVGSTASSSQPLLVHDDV

Clc1ccccc1Nc1nc2c(-c3nnc[nH]3)cccc2c2cnccc12 [A]
% Activity [1]: 81%
% Activity [2]: 43%
% Activity [3]: 100%
% Activity [4]: 56%
% Activity [5]: 53%
% Activity [6]: 26%
% Activity [7]: 61%
% Activity ([8]; Ros(h)): 90%
% Activity [9]: 89%
% Activity [10]: 97%
% Activity [11]: 97%
% Activity [12]: 93%
% Activity [13]: 43%
% Activity [14]: 97%
% Activity [15]: 23%
% Activity [16]: 50%
% Activity [17]: 72%
% Activity [18]: 39%
% Activity [19]: 99%
% Activity [20]: 77%
% Activity [21]: 12%
% Activity [22]: −4%
% Activity [23]: −1%
% Activity [24]: 2%
% Activity [25]: 75%

NC(=O)c1cccc2c1nc(Nc1cccc(Cl)c1)c1ccncc12 [B]
% Activity [1]: 75%
% Activity [2]: 77%
% Activity [3]: 19%
% Activity [4]: 56%
% Activity [5]: 76%
% Activity ([26]; Fms(h)): 42%
% Activity [6]: 44%
% Activity [7]: 62%
% Activity [9]: 88%
% Activity [10]: 105%
% Activity [11]: 100%
% Activity [12]: 94%
% Activity [13]: 75%
% Activity [14]: 106%
% Activity [15]: 25%
% Activity [16]: 17%
% Activity ([27]; NEK2(h)): 95%
% Activity [17]: 88%
% Activity [18]: 83%
% Activity [19]: 95%
% Activity [20]: 77%
% Activity [21]: 65%
% Activity [22]: 5%
% Activity [23]: 2%
% Activity [24]: 46%
% Activity [25]: 15%
% Activity ([28]; ALK(h)): 100%

C#Cc1cccc(Nc2nc3cc(C(=O)O)ccc3c3cncnc23)c1 [drawing 1135]
MAP2K7 beta percentage of activity [1]: −33%
AURKA percentage of activity [2]: 6%
DAPK3 percentage of activity [3]: 88%
EGFR(T790M) percentage of activity [5]: 8%
CSF1R percentage of activity [26]: −74%
YES percentage of activity [6]: −9%
HCK percentage of activity [7]: −11%
ROS percentage of activity [8]: −10%
cKit(h) percentage of activity [9]: −14%
PDGFRA percentage of activity [10]: −9%
FGFR2 percentage of activity [12]: −7%
ERK2 percentage of activity [29]: 5%
MAPK2 percentage of activity [29]: −4%
VEGFR2 percentage of activity [13]: 33%
ZAP70 percentage of activity [14]: −18%
GSK3B percentage of activity [15]: 44%
CDK7/cyclinH/MAT1 percentage of activity [16]: 23%
NEK2 percentage of activity [27]: 23%
MEK1 percentage of activity [17]: −36%
PRKCT percentage of activity [18]: −11%
RON percentage of activity [19]: −6%
ERBB4 percentage of activity [20]: −26%
PIM3 percentage of activity [21]: 13%
DYRK2 percentage of activity [22]: 50%
PIM2 percentage of activity [24]: 25%
DRAK1 percentage of activity [25]: 38%
ALK percentage of activity [28]: −12%

NC(=O)c1ccc2c(c1)nc(Nc1cccc(Cl)c1)c1ccncc12 [drawing 1138]
MAP2K7 beta percentage of activity [1]: 12%
AURKA percentage of activity [2]: 11%
DAPK3 percentage of activity [3]: 34%
EGFR(L858R) percentage of activity [4]: 63%
EGFR(T790M) percentage of activity [5]: 43%
CSF1R percentage of activity [26]: 52%
YES percentage of activity [6]: 30%
HCK percentage of activity [7]: 28%
ROS percentage of activity [8]: −3%
cKit(h) percentage of activity [9]: −10%
PDGFRA percentage of activity [10]: 5%
PKA percentage of activity [11]: −1%
FGFR2 percentage of activity [12]: 9%
ERK2 percentage of activity [29]: 15%
VEGFR2 percentage of activity [13]: 15%
ZAP70 percentage of activity [14]: −2%
GSK3B percentage of activity [15]: 26%
CDK7/cyclinH/MAT1 percentage of activity [16]: 57%
NEK2 percentage of activity [27]: 13%
MEK1 percentage of activity [17]: 8%
PRKCT percentage of activity [18]: 1%
RON percentage of activity [19]: −3%
ERBB4 percentage of activity [20]: 33%
DYRK2 percentage of activity [22]: 82%
HIPK2 percentage of activity [23]: 89%
DRAK1 percentage of activity [25]: −5%
ALK percentage of activity [28]: −2%

Source: patent US8168651B2, “Protein kinase modulators” (Cylene Pharmaceuticals, Inc., priority 2008, dated 2012)
